Assay results as given in US20100278921A1 (priority 2009, published 2010).
Like-named read-outs stand apart in the source and are kept apart here.

Experiments:
[1] = Solubility in water; assay type: physicochemical
Text: It will be recognized that aqueous solubility of many compounds is pH dependent; in the case of such compounds the solubility of interest herein is at a physiologically relevant pH, for example a pH of about 1 to about 8.

[2] = Bioavailability of ABT-737 in a rat model; assay type: in vivo; conditions: regardless of formulation

Row | Structure (SMILES) | solubility ([1]; pH 2, aqueous buffer, read-out: solubility in water at pH 2) [µg/mL] | solubility ([1]; physiologically relevant pH, about 1 to about 8, read-out: solubility in water) [µg/mL] | Bioavailability [2] [%]
1 | CC1(C)CCC(c2ccc(Cl)cc2)=C(CN2CCN(c3ccc(C(=O)NS(=O)(=O)c4ccc(N[C@H](CCN5CCOCC5)CSc5ccccc5)c(S(=O)(=O)C(F)(F)F)c4)cc3)CC2)C1 [ABT-263] | < 4 | < 10 | 
2 | CN(C)CC[C@H](CSc1ccccc1)Nc1ccc(S(=O)(=O)NC(=O)c2ccc(N3CCN(Cc4ccccc4-c4ccc(Cl)cc4)CC3)cc2)cc1[N+](=O)[O-] [ABT-737, N-(4-(4-((4′-chloro-(1,1′-biphenyl)-2-yl)methyl)piperazin-1-yl)benzoyl)-4-(((1R)-3-(dimethylamino)-1-((phenylsulfanyl)methyl)propyl)amino)-3-nitrobenzene-sulfonamide] |  |  | ≤ 6
